Reference: article PMC5218480 (PLoS ONE, 2017)

Tested on: MV-4-11 cells
Test: Gene expression microarray analysis (Affymetrix PrimeView) and GSEA
Format: cell-based, human
Parameters: RFU PODN (11730768_x_at) / Fold change /veh PODN (11730768_x_at) / RFU LINC00158 (11744669_a_at) / Fold change /veh LINC00158 (11744669_a_at) / RFU DUSP10 (11751237_a_at) / Fold change /veh DUSP10 (11751237_a_at) / RFU ID3 (11757404_x_at) / Fold change /veh ID3 (11757404_x_at) / RFU PLEKHG5 (11737974_s_at) / Fold change /veh PLEKHG5 (11737974_s_at) / RFU LRRC4B (11730491_at) / Fold change /veh LRRC4B (11730491_at) / RFU GIMAP4 (11747438_a_at) / Fold change /veh GIMAP4 (11747438_a_at) / RFU KRT8 (11758183_x_at) / Fold change /veh KRT8 (11758183_x_at) / RFU CNN1 (11734310_a_at) / Fold change /veh CNN1 (11734310_a_at) / RFU VPS37D (11726825_at) / Fold change /veh VPS37D (11726825_at) / RFU C10orf10 (11716522_x_at) / Fold change /veh C10orf10 (11716522_x_at) / RFU KIR2DL2 /// KIR2DL4 /// KIR2DL5A /// KIR2DL5B /// KIR2DS1 /// KIR2DS2 /// KIR2DS3 /// KIR2DS4 /// KIR3DL3 /// KIR3DL3 /// KIR3DS1 (11738374_at) / Fold change /veh KIR2DL2 /// KIR2DL4 /// KIR2DL5A /// KIR2DL5B /// KIR2DS1 /// KIR2DS2 /// KIR2DS3 /// KIR2DS4 /// KIR3DL3 /// KIR3DL3 /// KIR3DS1 (11738374_at) / RFU C1QL1 (11718748_at) / Fold change /veh C1QL1 (11718748_at) / RFU TMPRSS4 (11747572_a_at) / Fold change /veh TMPRSS4 (11747572_a_at) / RFU HAMP (11756126_x_at) / Fold change /veh HAMP (11756126_x_at) / RFU RNFT2 (11725882_a_at) / Fold change /veh RNFT2 (11725882_a_at) / RFU NR4A2 (11747474_a_at) / Fold change /veh NR4A2 (11747474_a_at) / RFU ABCC12 (11746883_a_at) / Fold change /veh ABCC12 (11746883_a_at) / RFU TMEM136 (11760407_x_at) / Fold change /veh TMEM136 (11760407_x_at) / RFU CLDN22 /// WWC2 (11732394_at) / Fold change /veh CLDN22 /// WWC2 (11732394_at) / RFU HLA-DPB1 (11760878_x_at) / Fold change /veh HLA-DPB1 (11760878_x_at) / RFU SPINT1 (11716480_a_at) / Fold change /veh SPINT1 (11716480_a_at) / RFU GAP43 (11754022_s_at) / Fold change /veh GAP43 (11754022_s_at) / RFU A4GNT (11735810_at) / Fold change /veh A4GNT (11735810_at) / RFU PRB3 (11715151_x_at) / Fold change /veh PRB3 (11715151_x_at) / RFU TUBB4B (11761932_at) / Fold change /veh TUBB4B (11761932_at) / RFU CAPN14 (11732068_a_at) / Fold change /veh CAPN14 (11732068_a_at) / RFU TMCC2 (11721928_a_at) / Fold change /veh TMCC2 (11721928_a_at) / RFU IRGQ (11745062_a_at) / Fold change /veh IRGQ (11745062_a_at) / RFU FAM174B (11720279_a_at) / Fold change /veh FAM174B (11720279_a_at) / RFU TMPRSS4 (11748680_a_at) / Fold change /veh TMPRSS4 (11748680_a_at) / RFU FAM212B (11763350_a_at) / Fold change /veh FAM212B (11763350_a_at) / RFU PLEKHG5 (11743358_a_at) / Fold change /veh PLEKHG5 (11743358_a_at) / RFU ZSCAN30 (11745921_a_at) / Fold change /veh ZSCAN30 (11745921_a_at) / RFU CMKLR1 (11741424_a_at) / Fold change /veh CMKLR1 (11741424_a_at) / RFU LOC101060620 /// MAPK8IP1 (11723275_at) / Fold change /veh LOC101060620 /// MAPK8IP1 (11723275_at) / RFU SPTSSB (11747773_x_at) / Fold change /veh SPTSSB (11747773_x_at) / RFU PRSS12 (11739890_at) / Fold change /veh PRSS12 (11739890_at) / RFU BIN1 (11741810_x_at) / Fold change /veh BIN1 (11741810_x_at) / RFU WNT11 (11732464_a_at) / Fold change /veh WNT11 (11732464_a_at) / RFU C10orf10 (11716521_a_at) / Fold change /veh C10orf10 (11716521_a_at) / RFU C5orf56 (11738089_at) / Fold change /veh C5orf56 (11738089_at) / RFU CYB561 (11721691_x_at) / Fold change /veh CYB561 (11721691_x_at) / RFU ANKRD19P (11752326_a_at) / Fold change /veh ANKRD19P (11752326_a_at) / RFU OR2T12 /// OR2T33 /// OR2T8 (11738714_s_at) / Fold change /veh OR2T12 /// OR2T33 /// OR2T8 (11738714_s_at) / RFU VCAN (11748164_a_at) / Fold change /veh VCAN (11748164_a_at) / RFU JSRP1 (11732532_at) / Fold change /veh JSRP1 (11732532_at) / RFU KRTAP10-11 (11738290_x_at) / Fold change /veh KRTAP10-11 (11738290_x_at) / RFU MYO3A (11730013_a_at) / Fold change /veh MYO3A (11730013_a_at) / RFU EBF3 (11725865_a_at) / Fold change /veh EBF3 (11725865_a_at) / RFU CAMK2N1 (11719241_x_at) / Fold change /veh CAMK2N1 (11719241_x_at) / RFU C5orf56 (11738088_a_at) / Fold change /veh C5orf56 (11738088_a_at) / RFU OLFML3 (11715873_a_at) / Fold change /veh OLFML3 (11715873_a_at) / RFU LOC100653217 /// NTM (11731650_a_at) / Fold change /veh LOC100653217 /// NTM (11731650_a_at) / RFU MAPK11 (11762145_a_at) / Fold change /veh MAPK11 (11762145_a_at) / RFU FIZ1 (11724087_x_at) / Fold change /veh FIZ1 (11724087_x_at) / RFU OASL (11726364_x_at) / Fold change /veh OASL (11726364_x_at) / RFU SOX15 (11748057_x_at) / Fold change /veh SOX15 (11748057_x_at) / RFU CD79A (11719716_a_at) / Fold change /veh CD79A (11719716_a_at) / RFU HIST1H1D (11736915_at) / Fold change /veh HIST1H1D (11736915_at) / RFU CASKIN2 (11723855_a_at) / Fold change /veh CASKIN2 (11723855_a_at) / RFU LOC730098 (11760151_x_at) / Fold change /veh LOC730098 (11760151_x_at) / RFU OR4N2 (11742367_at) / Fold change /veh OR4N2 (11742367_at) / RFU PRRT2 (11749266_a_at) / Fold change /veh PRRT2 (11749266_a_at) / RFU SNX32 (11753110_a_at) / Fold change /veh SNX32 (11753110_a_at) / RFU CDHR5 (11726645_a_at) / Fold change /veh CDHR5 (11726645_a_at) / RFU RCAN1 (11760418_a_at) / Fold change /veh RCAN1 (11760418_a_at) / RFU FAM167A (11723789_a_at) / Fold change /veh FAM167A (11723789_a_at) / RFU FAM26E (11764081_at) / Fold change /veh FAM26E (11764081_at) / RFU ISYNA1 (11749810_s_at) / Fold change /veh ISYNA1 (11749810_s_at) / RFU ACY1 (11761880_at) / Fold change /veh ACY1 (11761880_at) / RFU 11764098_at / Fold change /veh 11764098_at / RFU SAMD14 (11745864_x_at) / Fold change /veh SAMD14 (11745864_x_at) / RFU NPB (11741838_a_at) / Fold change /veh NPB (11741838_a_at) / RFU TMPRSS6 (11731388_a_at) / Fold change /veh TMPRSS6 (11731388_a_at) / RFU KRTAP10-2 (11738614_at) / Fold change /veh KRTAP10-2 (11738614_at) / RFU ARHGAP8 /// PRR5-ARHGAP8 (11727945_x_at) / Fold change /veh ARHGAP8 /// PRR5-ARHGAP8 (11727945_x_at) / RFU KRTAP5-7 /// NADSYN1 (11734609_at) / Fold change /veh KRTAP5-7 /// NADSYN1 (11734609_at) / RFU RASL12 (11751679_a_at) / Fold change /veh RASL12 (11751679_a_at) / RFU CDKN2B (11736163_a_at) / Fold change /veh CDKN2B (11736163_a_at) / RFU PRF1 (11729649_at) / Fold change /veh PRF1 (11729649_at) / RFU, ZNF638 /// ZNF638-IT1 / Fold change vs veh, ZNF638 /// ZNF638-IT1 / RFU, PANK3 / Fold change vs veh, PANK3 / RFU, SH3YL1 / Fold change vs veh, SH3YL1 / RFU, ZEB2 / Fold change vs veh, ZEB2 / RFU, NRIP1 / Fold change vs veh, NRIP1 / RFU, PTTG1IP / Fold change vs veh, PTTG1IP / RFU, CAPN2 / Fold change vs veh, CAPN2 / RFU, MED14 / Fold change vs veh, MED14 / RFU, SNORA58 / Fold change vs veh, SNORA58 / RFU, C1orf63 / Fold change vs veh, C1orf63 / RFU, LRRFIP1 / Fold change vs veh, LRRFIP1 / RFU, NDUFAF7 / Fold change vs veh, NDUFAF7 / RFU, SLC12A2 / Fold change vs veh, SLC12A2 / RFU, IBTK / Fold change vs veh, IBTK / RFU, ESF1 / Fold change vs veh, ESF1 / Fold change vs veh, TMEM50B / RFU, TAOK1 / Fold change vs veh, TAOK1 / RFU, ACBD3 / Fold change vs veh, ACBD3 / RFU, TMA16 / Fold change vs veh, TMA16 / RFU, RWDD3 / Fold change vs veh, RWDD3 / RFU, BCAT1 / Fold change vs veh, BCAT1 / RFU, EDEM3 / Fold change vs veh, EDEM3 / RFU, TMEM33 / Fold change vs veh, TMEM33 / RFU, WDR75 / Fold change vs veh, WDR75 / RFU, AHCTF1 / Fold change vs veh, AHCTF1 / RFU, TFRC / Fold change vs veh, TFRC / RFU, ZDHHC17 / Fold change vs veh, ZDHHC17 / RFU, NOM1 / Fold change vs veh, NOM1 / RFU, ARL8B / Fold change vs veh, ARL8B / RFU, ZBTB11 / Fold change vs veh, ZBTB11 / RFU, TAMM41 / Fold change vs veh, TAMM41 / RFU, KIAA1704 /// LOC100996395 / Fold change vs veh, KIAA1704 /// LOC100996395 / RFU, ING1 / Fold change vs veh, ING1 / RFU, TRMT61B / Fold change vs veh, TRMT61B / RFU, FUBP3 / Fold change vs veh, FUBP3 / RFU, TP53 / Fold change vs veh, TP53 / RFU, TNKS2 / Fold change vs veh, TNKS2 / RFU, ZFP14 / Fold change vs veh, ZFP14 / RFU, ACTR2 / Fold change vs veh, ACTR2 / RFU, PPP3R1 / Fold change vs veh, PPP3R1 / RFU, PIK3R1 / Fold change vs veh, PIK3R1 / RFU, HNRNPA1 / Fold change vs veh, HNRNPA1 / RFU, RNF170 / Fold change vs veh, RNF170 / RFU, ZNF28 / Fold change vs veh, ZNF28 / RFU, RNGTT / Fold change vs veh, RNGTT / RFU, OGT / Fold change vs veh, OGT / RFU, BRD1 / Fold change vs veh, BRD1 / RFU, MARS / Fold change vs veh, MARS / RFU, ZNF655 / Fold change vs veh, ZNF655 / RFU, FAHD1 / Fold change vs veh, FAHD1 / RFU, BDP1 / Fold change vs veh, BDP1 / RFU, LRRCC1 / Fold change vs veh, LRRCC1 / RFU, ARID1A / Fold change vs veh, ARID1A / RFU, ZNF146 / Fold change vs veh, ZNF146 / RFU, ZNF330 / Fold change vs veh, ZNF330 / RFU, GPN3 / Fold change vs veh, GPN3 / RFU, C9orf123 / Fold change vs veh, C9orf123 / RFU, N4BP2L2 / Fold change vs veh, N4BP2L2 / RFU, ARFIP1 / Fold change vs veh, ARFIP1 / RFU, FAM179B / Fold change vs veh, FAM179B / RFU, BCL10 / Fold change vs veh, BCL10 / RFU, UHRF1BP1L / Fold change vs veh, UHRF1BP1L / RFU, BET1 / Fold change vs veh, BET1 / RFU, CNOT2 / Fold change vs veh, CNOT2 / RFU, ZNF268 / Fold change vs veh, ZNF268 / Fold change vs veh, ZNF507 / RFU, DGCR2 / Fold change vs veh, DGCR2 / RFU, WDSUB1 / Fold change vs veh, WDSUB1 / Fold change vs veh, HSP90B1 /// MIR3652 / RFU, ADSS / Fold change vs veh, ADSS / RFU, GK / Fold change vs veh, GK / RFU, ZNF148 / Fold change vs veh, ZNF148 / RFU, TAF9 / Fold change vs veh, TAF9 / RFU, SLC1A5 / Fold change vs veh, SLC1A5 / RFU, SLMO2 / Fold change vs veh, SLMO2 / RFU, ABCC4 / Fold change vs veh, ABCC4 / RFU, LOC101060439 /// RAP1B / Fold change vs veh, LOC101060439 /// RAP1B / RFU, RFX7 / Fold change vs veh, RFX7 / RFU, GTPBP10 / Fold change vs veh, GTPBP10 / RFU, CNEP1R1 / Fold change vs veh, CNEP1R1 / RFU, BIVM-ERCC5 /// ERCC5 / Fold change vs veh, BIVM-ERCC5 /// ERCC5 / RFU, ILF3 / Fold change vs veh, ILF3 / RFU 11762660_at / Fold change /veh 11762660_at / RFU VCAN (11757783_s_at) / Fold change /veh VCAN (11757783_s_at) / RFU DDX43 (11728927_at) / Fold change /veh DDX43 (11728927_at) / RFU KRT8 (11758188_x_at) / Fold change /veh KRT8 (11758188_x_at) / RFU NKD1 (11759106_at) / Fold change /veh NKD1 (11759106_at) / RFU SRD5A1 (11742802_a_at) / Fold change /veh SRD5A1 (11742802_a_at) / RFU TPSAB1 /// TPSB2 (11721975_s_at) / Fold change /veh TPSAB1 /// TPSB2 (11721975_s_at) / RFU GSTM3 (11746129_a_at) / Fold change /veh GSTM3 (11746129_a_at) / RFU IL23R (11737362_x_at) / Fold change /veh IL23R (11737362_x_at) / RFU TMEM51 (11727254_a_at) / Fold change /veh TMEM51 (11727254_a_at) / RFU PIWIL2 (11732686_x_at) / Fold change /veh PIWIL2 (11732686_x_at) / RFU ORM1 (11744905_x_at) / Fold change /veh ORM1 (11744905_x_at) / RFU CCDC152 (11743942_at) / Fold change /veh CCDC152 (11743942_at) / RFU ECM1 (11717891_a_at) / Fold change /veh ECM1 (11717891_a_at) / RFU IL23R (11748794_a_at) / Fold change /veh IL23R (11748794_a_at) / RFU TNFAIP8L3 (11732012_x_at) / Fold change /veh TNFAIP8L3 (11732012_x_at) / RFU MBOAT4 (11741988_at) / Fold change /veh MBOAT4 (11741988_at) / RFU 11764193_at / Fold change /veh 11764193_at / RFU TMEM53 (11763286_at) / Fold change /veh TMEM53 (11763286_at) / RFU MAGEB2 (11727129_at) / Fold change /veh MAGEB2 (11727129_at) / RFU TMEM200A (11744735_a_at) / Fold change /veh TMEM200A (11744735_a_at) / RFU CCDC152 (11751479_a_at) / Fold change /veh CCDC152 (11751479_a_at) / RFU FAM211A (11726209_a_at) / Fold change /veh FAM211A (11726209_a_at) / RFU RGS16 (11746705_a_at) / Fold change /veh RGS16 (11746705_a_at) / RFU VCAN (11755009_s_at) / Fold change /veh VCAN (11755009_s_at) / RFU RHOB (11743442_s_at) / Fold change /veh RHOB (11743442_s_at) / RFU RGS16 (11720943_a_at) / Fold change /veh RGS16 (11720943_a_at) / RFU RGS16 (11720944_at) / Fold change /veh RGS16 (11720944_at) / RFU, VPS4B / Fold change vs veh, VPS4B / RFU, CREB1 / Fold change vs veh, CREB1 / RFU, DNAJC13 / Fold change vs veh, DNAJC13 / RFU, GNAQ / Fold change vs veh, GNAQ / RFU, CDK5R1 / Fold change vs veh, CDK5R1 / RFU, ZRANB3 / Fold change vs veh, ZRANB3 / RFU, CUL4A / Fold change vs veh, CUL4A / RFU, CCNY / Fold change vs veh, CCNY / RFU, UFL1 / Fold change vs veh, UFL1 / RFU, COG3 / Fold change vs veh, COG3 / RFU, DIAPH2 / Fold change vs veh, DIAPH2 / RFU, SKA2 / Fold change vs veh, SKA2 / RFU, AFF3 / Fold change vs veh, AFF3 / RFU, LMF1 / Fold change vs veh, LMF1 / RFU, IPO11 / Fold change vs veh, IPO11 / RFU, DFFB / Fold change vs veh, DFFB / RFU, FOXP1 / Fold change vs veh, FOXP1 / RFU, CARD8 / Fold change vs veh, CARD8 / RFU, STRN3 / Fold change vs veh, STRN3 / RFU, ADK / Fold change vs veh, ADK / RFU, RASSF2 / Fold change vs veh, RASSF2 / RFU, WIPF1 / Fold change vs veh, WIPF1 / RFU, LARP1B / Fold change vs veh, LARP1B / RFU, RASA1 / Fold change vs veh, RASA1 / RFU, RB1 / Fold change vs veh, RB1 / RFU, PPFIA1 / Fold change vs veh, PPFIA1 / RFU, MAT2A / Fold change vs veh, MAT2A / RFU, CCT5 / Fold change vs veh, CCT5 / RFU, WDR92 / Fold change vs veh, WDR92 / RFU, CUX1 / Fold change vs veh, CUX1 / RFU, TTC7A / Fold change vs veh, TTC7A / RFU, TMEM135 / Fold change vs veh, TMEM135 / RFU, DEPTOR / Fold change vs veh, DEPTOR / RFU, CPM / Fold change vs veh, CPM / RFU, DNAJB6 / Fold change vs veh, DNAJB6 / RFU, CACNA2D3 / Fold change vs veh, CACNA2D3 / RFU, DTX4 / Fold change vs veh, DTX4 / RFU, TFCP2 / Fold change vs veh, TFCP2 / RFU, GMCL1 /// GMCL1P1 / Fold change vs veh, GMCL1 /// GMCL1P1 / RFU, AEBP2 / Fold change vs veh, AEBP2 / RFU, SNHG1 /// SNORD22 /// SNORD25 /// SNORD26 /// SNORD27 /// SNORD28 /// SNORD29 /// SNORD31 / Fold change vs veh, SNHG1 /// SNORD22 /// SNORD25 /// SNORD26 /// SNORD27 /// SNORD28 /// SNORD29 /// SNORD31 / Fold change (Aza/veh), C12orf56 (ProbeSet 11735607_a_at) / Fold change (ACY-1035/veh), C12orf56 (ProbeSet 11735607_a_at) / Fold change (Aza/veh), FGFR1OP (ProbeSet 11751329_s_at) / Fold change (ACY-1035/veh), FGFR1OP (ProbeSet 11751329_s_at) / Fold change (Aza/veh), VPS36 (ProbeSet 11739960_a_at) / Fold change (ACY-1035/veh), VPS36 (ProbeSet 11739960_a_at) / RFU SYPL1 (11715823_x_at) / Fold change /veh SYPL1 (11715823_x_at) / RFU IGFBP7 (11715501_s_at) / Fold change /veh IGFBP7 (11715501_s_at) / RFU REEP3 (11722064_at) / Fold change /veh REEP3 (11722064_at) / RFU IGLL1 (11728026_x_at) / Fold change /veh IGLL1 (11728026_x_at): dose or concentration left out as unconfirmed
Details: MV-4-11 cells, 48 hours

Compound: Nc1ccc(-c2cccs2)cc1NC(=O)c1ccc2c(c1)cc(C1CC1)n2CCN1CCOCC1 [ACY-1035]
- Fold change /veh NPB (11741838_a_at): 0.93
